Test results reported in patent US6734171B1, “Methods for encapsulating nucleic acids in lipid bilayers” (Inex Pharmaceuticals Corp., priority 1997, dated 2004).

Tests used:
Unseparated spleen cells = assay: Cell proliferation assay (3H-thymidine) of spleen cells stimulated in vitro; assay type: cell-based, Balb/c mice; conditions: spleen cells of Diluent treated mice; label = in vitro stimulation
Method: Mice, 12 per group, were injected intravenously (i.v.) with TCS formulations as described below. In this study four injections were given at intervals of seven days over a period of five weeks (Table 4). Group A was injected with INEX324 expressing LacZ reporter gene on day 0, 7 and 14 (150 μl per mouse of INEX324-LacZ, 75 μg DNA). Two weeks after the last LacZ injection, mice were injected with INEX324-Luc (150 μl per injection, 80 μg DNA). To evaluate the immunogenicity of INEX324 lipid, Group B received three injections of INEX324 empty vesicles (150 μl per mouse) and one injection of INEX324-Luc two weeks later. Group C served as a base-line control, mice were given 150 μl of diluent at each time point. Mice from Group D received three diluent injections, followed by a single injection of INEX324-Luc, and served as a positive control for luciferase expression. Three mice from each group were sacrificed at 18 hours after each injection, or 24 hours prior to the following injection. Blood was collected and the serum samples were analyzed for the presence of antibodies specific for β-galactosidase using an ELISA assay. […] Splenocytes were monitored for expression, of differentiation (CD4, CD8, CD22, CD11b) and activation (CD86, MHC-II, Ly-6A/E, CD54 and CD25) markers. […]
Unseparated spleen cells were tested in vitro for their ability to proliferate upon re-stimulation with the empty INEX324 vesicles, INEX324-LacZ formulation, LacZ, transgene product (r-β-galactosidase), or with polyclonal activators for T (Concanavalin A, Con A) and […] (Lipopolysaccharide, LPS). […] An isolated cell suspension was separated from debris by removing the supernatant and the cell number was quantified using a Coulter counter (Coulter Instruments, Miami, Fla.). […] The levels of incorporated radioactivity were measured in a scintillation counter. ^3H-thymidine incorporation is expressed total ^3H-incorporation (DPMs), or as a mean percentage (±SD) of media control and plotted versus lipid concentration values.

Splenocytes = assay: Cytokine release (IL-2, IL-4 ELISA) of splenocytes stimulated in vitro; assay type: cell-based, Balb/c mice; conditions: spleen cells of Diluent treated mice; label = in vitro stimulation
Method: Splenocytes (1×10^6 cells/ml) were either nonstimulated or cultured in the presence of various concentrations of either empty INEX324 vesicles, or INEX324-LacZ formulation at different times after culture initiation (24 h and 48 h). The levels of cytokine in the cell culture supernatant (Interleukin-2 and Interleukin-4) were determined by an ELISA assasy (below).
Cytokine-specific ELISA assays were performed using the protocol and specific anti-interleukin antibodies provided by reagent mini-kit (Endogen, Woburn MA). Briefly, Immuno-module (F8-maxisorb) 96-well plates were coated overnight with anti-IL-2, or anti-IL-4 antibody. Plates were washed with PBS-Tween 20 (0.05%) and blocked with PBS-Tween 20-BSA (2%) for 1 hour at room temperature. Supernatant samples and standards (diluted in blocking buffer) were added and allowed to incubate overnight. Plates were washed and biotinylated anti-IL-2 or anti-IL-4 antibody was added. After 2 hours incubation, plates were washed and HRP-Extravidin, followed by TMB, was added to each well. Plates were read on a plate reader at OD450nm. The amount of released cytokine was determined by comparing the O.D. of test supernatants to a standard curve of serially diluted cytokine standards.

Substance | 3H-incorporation (Unseparated spleen cells) [DPMs] | Cytokine release IL-2 (Splenocytes) [OD450] | Cytokine release IL-4 (Splenocytes) [OD450]
Lipopolysaccharide [LPS] | 35676 | – | –
r-β-gal: transgene product (r-β-galactosidase) | 18336 | 0.059 | 0.103
Concanavalin A [ConA] | 215542 | 0.615 | 0.138
